Assay results: patent US20110117069A1, “METHOD FOR ACTIVATING REGULATORY T-CELLS” (IMTM GMBH, priority 2007, published 2011)
Where two headings read alike, the source gives them in different places.

Legend:
APN = conditions: cited from earlier work; for Ki: α-Keto amides
LAP = LAP (Homo sapiens, UniProt P28838); conditions: α-Aminoboric acids; cited from earlier work
Cytosolic AP = conditions: α-Keto amides; cited from earlier work
Argininyl AP = Argininyl AP (Homo sapiens, UniProt Q9H4A4); conditions: α-Keto amides, cited from earlier work
[1] = tested on: human regulatory T-cells (CD4+CD25+); assay: Co-culture of human effector cells (CD4+CD25-) and regulatory T-cells, proliferation by tritium thymidine inclusion; type: cell-based; conditions: for effect of the inhibitor on suppressive capacity of the Treg cells: 120 hours co-culture, anti-CD3
Excerpt: Mononuclear cells were obtained from the peripheral blood of healthy donors by means of density-gradient centrifugation. The isolation of regulatory T-cells occurred by means of a two-stage magnetic separation:
In a first step CD4^+ T-cells were recovered by depletion of all CD4-negative cells [CD4 separation kit, Miltenyi Biotech, Bergisch-Gladbach, Germany]. The purity achieved regularly amounted to >95% CD4^+ T-cells.
In a second step CD4^+CD25^+ regulatory T-cells were in turn isolated from this population by magnetic column separation using CD25 marking [anti-CD25 MicroBeads, Miltenyi Biotech].
The CD4^+CD25^− fraction served as effector cell control.
The functional capacity of the regulatory T-cells was tested in a special co-culture. For this, 20 000 effector cells (CD4^+CD25^−) and regulatory T-cells (CD4^+CD25^+) in total were respectively cultivated in different quantitative ratios to one another over a period of 120 hours in microtest plates. A solid phase-bound anti-CD3 antibody [UCHT1, 0.25 μg/well] was used as activator of the T-cell stimulation.
The degree of proliferation of the cultivated cells was analysed on the basis of the DNA synthesis rate by means of tritium thymidine inclusion over 24 hours [n=5].
The degree of proliferation of the cultivated cells was analysed on the basis of the DNA synthesis rate by means of tritium thymidine inclusion over 24 hours [n=3].
Mononuclear cells were obtained from the peripheral blood of healthy donors by means of density-gradient centrifugation. A T-cell separation followed using nylon pad adherence.
The isolation of regulatory T-cells occurred by means of a two-stage magnetic separation:
The degree of proliferation of the cultivated cells was analysed on the basis of the DNA synthesis rate by means of tritium thymidine inclusion over 24 hours [n=10].

colitis in Balb-c mice = assay: DSS colitis model in mice, disease activity index (DAI); type: in vivo; conditions: single intravenous application on day 3, phebestin 0.5 mg/kg or 1 million cells/animal, up to 48 hours after application
Excerpt: Colitis was triggered in Balb-c mice by the oral application of 3% dextran sodium sulphate solution (DSS). The degree of severity of the illness was established on the basis of a disease activity index (DAI). This consisted of the daily documentation of body weight loss, stool consistency, rectal bleeding, food and water intake, and is defined in the publication “Bank, U., Heimburg, A., Helmuth, M., Stefin, S., Lendeckel, U., Reinhold, D., Faust, J., Fuchs, P., Sens, B., Neubert, K., Täger, M., Ansorge, S.; Triggering endogenous immunosuppressive mechanisms by combined targeting of dipeptidyl peptidase IV (DPIV/CD26) and aminopeptidase N (APN/CD13)—A novel approach for the treatment of inflammatory bowel disease; International Immunopharmacology 6: 1925-1934 (2006)”.
Regulatory T-cells from peripheral venous blood were recovered in parallel by means of density-gradient centrifugation and magnetic separation using CD25 Microbeads.
On day 3, either the aminopeptidase N inhibitor phebestin (0.5 mg/kgKG), untreated CD4^+CD25^+ Treg cells (1 million cells/animal) or activated CD4^+CD25^+ Treg cells (1 million cells/animal) were applied once intravenously.
The activation of the Treg cells occurred ex situ using the method according to the invention by incubating the Treg cells for 45 minutes in the presence of phebestin [500 μg/ml].

[2] = tested on: murine regulatory T-cells (CD4+CD25+); assay: Co-culture of murine effector cells (MNC-CD25-) and regulatory T-cells, proliferation by tritium thymidine inclusion; type: cell-based, mice; conditions: 1.0 μM, after 5 days of co-culture, anti-CD3/anti-CD28
Protocol: Mononuclear cells (MNC) were obtained from the peripheral blood of healthy mice by means of density-gradient centrifugation. The isolation of regulatory T-cells occurred using CD25 marking [anti-CD25 MicroBeads, Miltenyi Biotech]. The CD25^− MNC fraction served as effector cell control.
The functional capacity of the regulatory T-cells was tested in a special co-culture. For this, 20 000 effector cells (MNC-CD25^−) and regulatory T-cells (CD4^+CD25^+) in total were respectively cultivated in different quantitative ratios to one another over a period of 120 hours in microtest plates. The T-cell stimulation occurred by adding anti-CD3/anti-CD28 [1 μg/ml].
The degree of proliferation of the cultivated cells was analysed on the basis of the DNA synthesis rate by means of tritium thymidine inclusion over 24 hours [n=4].

[3] = β-Aminothiols table, read-out: IC50 (nM) APN
[4] = α-Aminoboric acids, read-out: IC50, μM (APN)
[5] = N-Phenylphthalimides and -homophthalimides, enzyme not given, alanyl-aminopeptidase, read-out: IC50

Sequence of Argininyl AP (Q9H4A4 whole entry): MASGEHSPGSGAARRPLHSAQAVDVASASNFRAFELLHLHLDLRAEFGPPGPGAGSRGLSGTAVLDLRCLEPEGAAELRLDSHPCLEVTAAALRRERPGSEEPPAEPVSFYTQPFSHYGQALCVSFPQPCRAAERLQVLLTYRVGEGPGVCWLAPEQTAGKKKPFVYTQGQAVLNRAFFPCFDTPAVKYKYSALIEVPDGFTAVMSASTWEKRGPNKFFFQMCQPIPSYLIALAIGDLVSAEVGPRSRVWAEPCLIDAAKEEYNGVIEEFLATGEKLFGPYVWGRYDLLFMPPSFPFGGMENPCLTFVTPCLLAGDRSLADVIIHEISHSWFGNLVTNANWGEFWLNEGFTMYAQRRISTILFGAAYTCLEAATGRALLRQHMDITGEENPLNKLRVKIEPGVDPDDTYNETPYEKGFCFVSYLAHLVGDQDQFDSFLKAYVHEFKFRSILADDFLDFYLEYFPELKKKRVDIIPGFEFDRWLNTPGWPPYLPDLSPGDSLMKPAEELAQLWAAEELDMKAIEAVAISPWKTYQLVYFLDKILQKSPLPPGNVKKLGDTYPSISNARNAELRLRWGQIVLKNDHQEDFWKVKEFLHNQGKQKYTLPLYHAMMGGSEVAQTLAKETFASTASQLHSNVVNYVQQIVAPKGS
Sequence of LAP (P28838 whole entry): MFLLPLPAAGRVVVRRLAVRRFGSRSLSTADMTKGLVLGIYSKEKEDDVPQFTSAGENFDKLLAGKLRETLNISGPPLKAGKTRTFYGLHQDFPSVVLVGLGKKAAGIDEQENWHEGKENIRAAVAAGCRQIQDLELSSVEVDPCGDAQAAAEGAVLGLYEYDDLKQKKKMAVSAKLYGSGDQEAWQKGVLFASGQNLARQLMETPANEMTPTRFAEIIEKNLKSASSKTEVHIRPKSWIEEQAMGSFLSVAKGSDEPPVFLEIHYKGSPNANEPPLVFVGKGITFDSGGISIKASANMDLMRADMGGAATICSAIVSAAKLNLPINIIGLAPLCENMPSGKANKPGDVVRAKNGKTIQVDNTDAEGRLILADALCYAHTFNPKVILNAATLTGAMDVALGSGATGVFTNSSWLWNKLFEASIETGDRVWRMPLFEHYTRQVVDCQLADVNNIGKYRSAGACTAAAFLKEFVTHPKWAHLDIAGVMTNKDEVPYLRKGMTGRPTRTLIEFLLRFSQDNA

Compound: NC(CS)COCc1ccccc1 (centres unmarked)
- IC50 (APN; [3]): 56 nM

Compound: NC(CS)CC1CCCCC1 (centres unmarked)
- IC50 (APN; [3]): 45 nM

Compound: CC(C)(C)SCC(N)CS (centres unmarked)
- IC50 (APN; [3]): 40 nM

Compound: NC(CS)c1ccccc1 (centres unmarked)
- IC50 (APN; [3]): 25 nM

Compound: NC(CS)Cc1ccc(O)cc1 (centres unmarked)
- IC50 (APN; [3]): 45 nM

Compound: CCOC(=O)[C@H](N)CS
- IC50 (APN; [3]): 350 nM

Compound: CC(C)C[C@@H](N)B(O)O
- IC50 (LAP): 0.25 µM

Compound: C[C@@H](N)B1OC(C)(C)C(C)(C)O1
- IC50 (LAP): 0.35 µM
- IC50 (APN; [4]): 70 nM

Compound: CC(C)C[C@@H](N)B1OC(C)(C)C(C)(C)O1
- IC50 (LAP): 0.25 µM
- IC50 (APN; [4]): 74 nM

Compound: CC1(C)OB([C@H](N)Cc2ccccc2)OC1(C)C
- IC50 (LAP): 0.2 µM
- IC50 (APN; [4]): 50 nM

Compound: N[C@H](Cc1ccccc1)B1OCCCO1
- IC50 (LAP): 0.2 µM

Compound: CSc1ccccc1N1C(=O)Cc2ccccc2C1=O
- IC50 (APN; [5]): 900 nM

Compound: CC(C)c1cccc(C(C)C)c1N1C(=O)Cc2c(N)cccc2C1=O
- IC50 (APN; [5]): 5400 nM

Compound: CC(C)c1cccc(C(C)C)c1N1C(=O)Cc2c(O)cccc2C1=O
- IC50 (APN; [5]): 4300 nM

Compound: CC(C)CCNC(=O)C(=O)[C@@H](N)Cc1ccccc1
- Ki (Cytosolic AP): 1 µM
- Ki (Argininyl AP): 1.5 µM
- Ki (APN): 2.5 µM

Compound: CC(C)CCNC(=O)[C@@H](O)[C@H](N)Cc1ccccc1
- Ki (APN): 20 µM

Compound: CC(C)CCNC(=O)[C@@H](O)[C@H](N)CC(C)C
- Ki (Argininyl AP): > 300 µM
- Ki (APN): 24 µM

Compound: CC(C)CCNC(=O)C(=O)C(N)CC(C)C (racemic)
- Ki (Argininyl AP; (R) isomer): 6.5 µM
- Ki (Argininyl AP; (S) isomer): 3.2 µM
- Ki (APN; (R) isomer): 18.6 µM
- Ki (APN; (S) isomer): 10.5 µM

Compound: CCc1cccc(CC)c1-n1c(=O)[nH]c2ccccc2c1=O [PAQ22, 3-(2,6-diethylphenyl-)quinazoline-2,4(1H3H)-dione]
- induction of suppressive capacity of the regulatory T-cells ([1]; 10% and 5% Treg cell components, after 5 days of co-culture): induced the suppressive capacity

Compound: CCCCC[C@H](CC(=O)NO)C(=O)N[C@H](C(=O)N1CCC[C@H]1CO)C(C)C [actinonin]
- effect of the inhibitor on suppressive capacity of the Treg cells ([1]; physiologically relevant range of 10:1 effector cells to Treg cells (10% Treg)): significant intensification of the suppressive capacity
- effect of the inhibitor on suppressive capacity of the Treg cells ([1]; ratio of 1:1 of effector cells to Treg cells (50% Treg)): no reliable effect

Compound: CC(C)[C@H](NC(=O)[C@@H](O)[C@H](N)Cc1ccccc1)C(=O)N[C@@H](Cc1ccccc1)C(=O)O [phebestin]
- activity of the disease (disease activity index) / clinical symptoms (colitis in Balb-c mice): no effect
- induction of suppressive capacity of the regulatory T-cells [2]: induced the suppressive capacity of the regulatory T-cells to a significant degree
